The values below come from US20190192697A1, “CHEMICAL PROBES OF LYSYL OXIDASK-LIKE 2 AND USES THEREOF” (PHARMAKEA, INC., priority 2016, published 2019).

pIC50: −log10 of the molar value. Counter-ions that a name gives are not always drawn. Like-named read-outs stand apart in the source and are kept apart here. Where only a bound is given, the exact number is not on record here.

The target of one series is T1, LOXL2 (Homo sapiens, UniProt Q9Y4K0).
T1 sequence (Q9Y4K0 26-774): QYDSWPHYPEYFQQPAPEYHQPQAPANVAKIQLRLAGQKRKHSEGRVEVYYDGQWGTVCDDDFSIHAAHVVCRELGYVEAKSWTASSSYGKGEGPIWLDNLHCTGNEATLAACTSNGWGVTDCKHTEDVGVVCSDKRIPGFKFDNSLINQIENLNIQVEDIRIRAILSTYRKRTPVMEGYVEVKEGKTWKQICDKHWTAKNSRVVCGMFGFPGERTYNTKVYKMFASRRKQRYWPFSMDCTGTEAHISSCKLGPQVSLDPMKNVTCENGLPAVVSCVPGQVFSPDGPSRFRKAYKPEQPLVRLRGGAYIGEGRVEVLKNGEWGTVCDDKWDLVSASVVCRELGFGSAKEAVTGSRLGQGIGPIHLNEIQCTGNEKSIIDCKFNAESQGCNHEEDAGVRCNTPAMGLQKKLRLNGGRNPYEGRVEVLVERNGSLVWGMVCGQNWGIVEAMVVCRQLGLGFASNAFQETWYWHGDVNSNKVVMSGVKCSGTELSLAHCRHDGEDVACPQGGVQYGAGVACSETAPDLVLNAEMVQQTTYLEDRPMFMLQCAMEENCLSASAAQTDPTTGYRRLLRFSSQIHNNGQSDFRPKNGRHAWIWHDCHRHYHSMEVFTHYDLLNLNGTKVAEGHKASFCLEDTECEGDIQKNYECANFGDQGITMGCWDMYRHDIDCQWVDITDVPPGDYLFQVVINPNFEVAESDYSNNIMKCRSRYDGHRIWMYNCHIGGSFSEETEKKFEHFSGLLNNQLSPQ
The series can be described thus: Human LOXL2 amine oxidase activity assay (Amplex Red). It is filed as biochemical. Set-up: expressed in transfected cells; host or cells: CHO cells stably expressing human LOXL2; 10-20x concentrated conditioned media. To be noted: concentrated conditioned media from CHO cells expressing human LOXL2; 2 h at 37° C. pre-incubation. The method, then: LOXL2 amine oxidase activity is evaluated by measuring Amplex Red fluorescence using 10-20× concentrated conditioned media from CHO cells stably expressing human LOXL2. To assay for amine oxidase activity, 10 μL of the concentrated conditioned media is incubated with 2 μL of test compound in DMSO and 73 μL Assay Buffer (50 mM Borate Buffer, pH8) for 2 h at 37° C. After the 2 h incubation, 5 μL of 10 mM 1,5-diaminopentane (DAP) diluted in Assay Buffer and 10 μL of Amplex Red Mix (8.5 μL Assay Buffer+0.5 μL of 10 mM Amplex Red+1 μL of 500 U/mL Horseradish Peroxidase) are added and the plate mixed and immediately placed on the FlexStaion for fluorescence measurements. Fluorescence is read in kinetic mode every 2 min for 1 hour at excitation=544 nm and emission=590 nm. The amine oxidase activity is calculated from the slope of the linear portion of the curve.

The nature of series [1]: Plasma drug concentration in healthy human subjects after single oral dose. In kind it is in vivo. To be noted: for concentration at 2 h / concentration at 24 h: both sexes, human, plasma, read-out: Ave plasma Cmpd 2 conc; for concentration at 2 h: 2 hour post-dose. Here is the method: The amount of free/unbound LOXL2 was evaluated in 8 mL plasma from six healthy subjects at pre-dose or at 2, 24 or 48 hours after a single oral dose of Compound 1-13A and in two healthy subjects dosed with placebo. On average, the amount of free/unbound LOXL2 was decreased by approximately 60% at 2 hours post-dosing in the subjects receiving 150 mg of Compound 1-13a (see FIG. 7).
Healthy human subjects (male and female) were dosed with compound 2 in solution. Blood samples were drawn at regular intervals and the plasma isolated and analyzed for compound 1-13a concentration as well as LOXL2 target engagement. Placebo data is the average of all the placebo subjects in the single dose study (n=10).

Usually pIC50 stands for −log10 of the IC50, conventionally taken in molar units. A high value points to a small IC50. `NCc1cc(Oc2cccc(C(=O)N3C[C@@H](O)[C@H](F)C3)c2)nc(C(F)(F)F)c1` [Compound 1-13a, (R,R)-trans-(3-((4-(Aminomethyl)-6-(trifluoromethyl)pyridin-2-yl)oxy)phenyl)(3-fluoro-4-hydroxypyrrolidin-1-yl)methanone hydrochloride] gave a pIC50 against LOXL2 of more than 6.52. Besides, the “Ave plasma Cmpd 2 conc” value in series [1] (150 mg single oral dose, 24 hour post-dose) is listed as “BLOQ”. In addition, the concentration at 2 h in series [1] (150 mg single oral dose) turned out to be 0.966 µM; in series [1] (450 mg single oral dose), 4.38 µM; in series [1] (1000 mg single oral dose), 12.9 µM. In addition, the concentration at 24 h was 0.0035 µM in series [1] (450 mg single oral dose, 24 hour post-dose) and 0.008 µM in series [1] (1000 mg single oral dose, 24 hour post-dose).
